This note sets out measurements from ChEMBL document CHEMBL1201862, “PubChem BioAssay data set” (2004).

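Assay format: 96-well plates, 48-hour exposure. GI50 marks 50% less growth.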 Active and inactive are the calls of the source. No stated cut-off is given here; in the data, active = GI50 up to about 1.1 µM and inactive = higher.

Some test systems named below: RPMI-8226; M14; Malme-3M; ACHN; TK-10; SK-MEL-2; SF-295; LOX IMVI; SN12C; CAKI-1; HCT-15; HT-29; A498; SR; NCI-H23; RXF 393; A549; SK-OV-3; EKVX.
Test in all cases: NCI anticancer screen, dose series, 48 h

Turning to `COc1cc2c(c(OC)c1OC)C(=O)NCCC2`, the GI50 with RPMI-8226, in the assay with M14, in the assay with Malme-3M, in the assay with ACHN, in the assay with TK-10 and in the assay with SK-MEL-2 was > 100 µM (inactive) in each case. For the same molecule, the GI50 in the assay with SF-295 is > 100 µM (inactive); in the assay on LOX IMVI, > 100 µM (inactive); in the assay on SN12C it was > 100 µM (inactive); with CAKI-1 it was > 100 µM (inactive); in the assay on HCT-15, over 100 µM; with HT-29 it was > 100 µM (inactive). Further, the GI50 in the assay on A498, with SR, in the assay on NCI-H23, with RXF 393, with A549 and with SK-OV-3 was > 100 µM (inactive) in each case. Besides, the GI50 in the assay on EKVX is > 100 µM (inactive).

Consider `COc1ccccc1-n1c(N)c2c(C)c(-c3ccccc3)[nH]c2nc1=S`, for which the GI50 with RPMI-8226 is 50.2 µM (inactive); with M14 it was > 100 µM (inactive); with Malme-3M, 91.8 µM (inactive); in the assay with ACHN, > 100 µM (inactive); in the assay with TK-10, > 100 µM (inactive); in the assay on SK-MEL-2, > 100 µM (inactive). The GI50 in the assay on LOX IMVI was > 100 µM (inactive); in the assay with SN12C it was > 100 µM (inactive); in the assay on CAKI-1, > 100 µM (inactive); in the assay with HCT-15 it was over 100 µM; with A498 it was > 100 µM (inactive); with SR, > 100 µM (inactive). For the same molecule, the GI50 in the assay with NCI-H23 was 79.4 µM (inactive); in the assay with A549, 5.74 µM (inactive).

For the molecule `CCOC(OC1=C(C#N)CCCC1)C(C)[Se]c1ccccc1` (centres undefined), the GI50 is 28.3 µM (inactive) in the assay with RPMI-8226; 28.9 µM (inactive) in the assay on M14; 55.3 µM (inactive) with Malme-3M; 44.5 µM (inactive) in the assay with ACHN; > 100 µM (inactive) with TK-10; > 100 µM (inactive) with SK-MEL-2. For the same molecule, the GI50 in the assay on SF-295 is 33.3 µM (inactive); in the assay with LOX IMVI it was 16 µM (inactive); with SN12C, 25.2 µM (inactive); with CAKI-1, 65.2 µM (inactive); in the assay on HCT-15, 36.8 µM; with HT-29, 52.6 µM (inactive). Besides, the GI50 is > 100 µM (inactive) in the assay with A498; 20.7 µM (inactive) in the assay on SR; 16 µM (inactive) with NCI-H23; 15.2 µM (inactive) in the assay on RXF 393; 84.3 µM (inactive) in the assay with A549; > 100 µM (inactive) in the assay with SK-OV-3. Also, the GI50 in the assay on EKVX was 28.7 µM (inactive).

With `Cc1ccc(S(=O)(=O)OCC23CCC(CC2)C2CC23)cc1` (centres undefined), the GI50 is 25.9 µM (inactive) with RPMI-8226; 92 µM (inactive) with M14; 48.8 µM (inactive) in the assay with Malme-3M; 61.7 µM (inactive) in the assay with ACHN; > 100 µM (inactive) with TK-10; 35.1 µM (inactive) in the assay on SF-295. Also, the GI50 in the assay on LOX IMVI was 42.7 µM (inactive); in the assay on SN12C it was 45.4 µM (inactive); in the assay with CAKI-1, 49.8 µM (inactive); in the assay on HCT-15, 47.6 µM; with HT-29, 31.5 µM (inactive); with A498, 43.3 µM (inactive). For the same molecule, the GI50 in the assay with SR is 30.2 µM (inactive); in the assay with NCI-H23, 38.3 µM (inactive); with A549, 57.4 µM (inactive); with SK-OV-3, > 100 µM (inactive).

For the molecule `O=C(COC(=O)c1cccc2c(=O)c3ccccc3[nH]c12)Nc1ccccc1`, the GI50 in the assay with RPMI-8226 was 23.7 µM (inactive); with M14, 38 µM (inactive); in the assay with Malme-3M, 35.9 µM (inactive); with ACHN it was 41.8 µM (inactive); with TK-10, > 100 µM (inactive); in the assay on SF-295, 50.8 µM (inactive). Besides, the GI50 in the assay with LOX IMVI was 24.2 µM (inactive); in the assay on SN12C it was > 100 µM (inactive); in the assay on CAKI-1 it was 45.8 µM (inactive); in the assay on HT-29, 31.8 µM (inactive); in the assay with A498, 67.8 µM (inactive); with SR, 18.9 µM (inactive). Also, the GI50 is 19.5 µM (inactive) with NCI-H23; 33.1 µM (inactive) in the assay on RXF 393; 50.8 µM (inactive) in the assay with A549; > 100 µM (inactive) with SK-OV-3; > 100 µM (inactive) in the assay on EKVX.

As to `Cc1ccc(NC(=O)CC2C(=O)Nc3ccccc3[S+]2[O-])c(C)c1` (centres undefined), the GI50 is 12.1 µM (inactive) in the assay on RPMI-8226; 6.78 µM (inactive) in the assay with M14; 18.4 µM (inactive) in the assay with Malme-3M; 21 µM (inactive) in the assay on ACHN; 22.4 µM (inactive) with TK-10; 9.35 µM (inactive) in the assay on SK-MEL-2. Besides, the GI50 in the assay on SF-295 was 12.8 µM (inactive); with LOX IMVI, 16.4 µM (inactive); in the assay with SN12C, 30.5 µM (inactive); in the assay on CAKI-1 it was 11 µM (inactive); with HCT-15, 4.94 µM; with HT-29 it was 4.35 µM (inactive). Moreover, the GI50 with A498 is 18.9 µM (inactive); in the assay on SR, 2.9 µM (inactive); with NCI-H23 it was 14.9 µM (inactive); in the assay on RXF 393, 8.61 µM (inactive); with A549, 16.1 µM (inactive); in the assay on SK-OV-3, 17.6 µM (inactive). The GI50 with EKVX was > 61.7 µM (inactive).

As for `N#Cc1c2c(c(N=[N+]=[N-])n3c1nc1ccccc13)CCCC2`, the GI50 is 1.71 µM (inactive) in the assay on RPMI-8226; 1.93 µM (inactive) in the assay on M14; 2.4 µM (inactive) with Malme-3M; 2.16 µM (inactive) with ACHN; 2.77 µM (inactive) in the assay with TK-10; 1.73 µM (inactive) in the assay on SK-MEL-2. In addition, the GI50 was 2.05 µM (inactive) with SF-295; 1.8 µM (inactive) with LOX IMVI; 2.14 µM (inactive) with SN12C; 2.72 µM (inactive) in the assay with CAKI-1; 2.07 µM in the assay on HCT-15; 1.98 µM (inactive) in the assay on HT-29. The GI50 in the assay with A498 is 2.65 µM (inactive); in the assay on SR, 2.1 µM (inactive); with NCI-H23, 2.55 µM (inactive); in the assay with RXF 393 it was 1.77 µM (inactive); in the assay with A549, 4.67 µM (inactive); in the assay on SK-OV-3, 1.8 µM (inactive). Besides, the GI50 in the assay on EKVX was 16.9 µM (inactive).

Consider `O=C(NCCC1CN(S(=O)(=O)C(F)(F)F)c2ccccc21)OCc1ccccc1` (centres undefined), for which the GI50 was > 100 µM (inactive) in the assay on RPMI-8226; > 100 µM (inactive) in the assay on M14; 12 µM (inactive) in the assay on Malme-3M; > 100 µM (inactive) with ACHN; > 100 µM (inactive) in the assay with SK-MEL-2; > 100 µM (inactive) in the assay with SF-295. The GI50 in the assay with CAKI-1 was > 100 µM (inactive); in the assay on HCT-15 it was over 100 µM; in the assay with HT-29, > 100 µM (inactive); in the assay with A498 it was > 100 µM (inactive); in the assay on SR it was > 100 µM (inactive); with NCI-H23, > 100 µM (inactive). Further, the GI50 with RXF 393, in the assay on A549, in the assay with SK-OV-3 and in the assay on EKVX was > 100 µM (inactive) throughout.

In the case of `COc1cccc(NC(=O)/C(Cc2nc3ccccc3nc2C)=N/NC(=O)C[n+]2ccccc2)c1`, the GI50 was 26.5 µM (inactive) in the assay with RPMI-8226; > 100 µM (inactive) in the assay on M14; > 100 µM (inactive) with Malme-3M; > 100 µM (inactive) with ACHN; > 100 µM (inactive) in the assay with TK-10; > 100 µM (inactive) with SK-MEL-2. Also, the GI50 was > 100 µM (inactive) with SF-295; > 100 µM (inactive) in the assay on LOX IMVI; > 100 µM (inactive) with SN12C; > 100 µM (inactive) with CAKI-1; over 100 µM with HCT-15; > 100 µM (inactive) in the assay with HT-29. Further, the GI50 with A498, in the assay on SR, with NCI-H23, in the assay on A549, in the assay on SK-OV-3 and with EKVX was > 100 µM (inactive) each time.

`C/C(CC(=O)Nc1ccc(Cl)c(Cl)c1)=N/NC(=O)C[N+](C)(C)C`: the GI50 is 25.8 µM (inactive) in the assay with RPMI-8226; > 100 µM (inactive) in the assay with M14; > 100 µM (inactive) with Malme-3M; > 100 µM (inactive) with ACHN; > 100 µM (inactive) in the assay with TK-10; > 100 µM (inactive) in the assay on SK-MEL-2. For the same molecule, the GI50 with SF-295 is > 100 µM (inactive); with LOX IMVI, 18.1 µM (inactive); in the assay on SN12C, > 100 µM (inactive); in the assay with CAKI-1, > 100 µM (inactive); in the assay with HCT-15 it was over 100 µM; in the assay on HT-29, > 100 µM (inactive). Moreover, the GI50 was > 100 µM (inactive) with A498; 22.5 µM (inactive) in the assay on SR; > 100 µM (inactive) with NCI-H23; > 100 µM (inactive) in the assay with RXF 393; > 100 µM (inactive) in the assay with A549; > 100 µM (inactive) in the assay on EKVX.

In the case of `Cn1ccnc1Cn1cc(-c2cccc(-c3cn[nH]c3)c2)cn1`, the GI50 was > 100 µM (inactive) in the assay on RPMI-8226; > 100 µM (inactive) in the assay on M14; 28.1 µM (inactive) in the assay on ACHN; 35.5 µM (inactive) in the assay with TK-10; > 100 µM (inactive) in the assay on SK-MEL-2; > 100 µM (inactive) with SF-295. The GI50 in the assay with LOX IMVI was 88.5 µM (inactive); in the assay on SN12C it was 69.7 µM (inactive); with CAKI-1 it was 15.2 µM (inactive); with HCT-15 it was 79.3 µM; with A498 it was 38.1 µM (inactive); with SR, 80 µM (inactive). The GI50 in the assay on RXF 393 is 24.8 µM (inactive); in the assay on A549, 39.6 µM (inactive); with SK-OV-3 it was 0.753 µM (active); in the assay on EKVX, 14.6 µM (inactive).

On to `COc1cc(C2c3cc4c(cc3[C@@H](OCCN)[C@H]3COC(=O)C23)OCO4)cc(OC)c1O` (some centres undefined), for which the GI50 with M14 was 0.383 µM (active); in the assay with Malme-3M it was 0.136 µM (active); in the assay on ACHN, 0.181 µM (active); in the assay on TK-10, 2.14 µM (inactive); with SK-MEL-2, 0.322 µM (active); in the assay with SF-295, 0.108 µM (active). In addition, the GI50 was 0.0434 µM (active) in the assay with LOX IMVI; 0.107 µM (active) in the assay on SN12C; 0.135 µM (active) in the assay on CAKI-1; 2.87 µM in the assay on HCT-15; 0.7 µM (active) in the assay with HT-29; 0.212 µM (active) with A498. Besides, the GI50 was < 0.0191 µM (active) with SR; 0.136 µM (active) in the assay on NCI-H23; 0.44 µM (active) in the assay on RXF 393; 0.0518 µM (active) in the assay with A549; 0.129 µM (active) in the assay with SK-OV-3; 0.413 µM (active) in the assay with EKVX.
